Assay results: ChEMBL document CHEMBL5291721, “A preclinical secondary pharmacology resource illuminates target-adverse drug reaction associations of marketed drugs” (Nat Commun, 2023)

Legend:
[1] = biological target: Neuronal acetylcholine receptor subunit alpha-4 (Homo sapiens, UniProt P43681)
[2] = biological target: Sodium-dependent dopamine transporter (Homo sapiens, UniProt Q01959)
[3] = biological target: T1, Alpha-2A adrenergic receptor (Homo sapiens, UniProt P08913); format: functional, cell-based
T1 sequence (P08913 whole entry): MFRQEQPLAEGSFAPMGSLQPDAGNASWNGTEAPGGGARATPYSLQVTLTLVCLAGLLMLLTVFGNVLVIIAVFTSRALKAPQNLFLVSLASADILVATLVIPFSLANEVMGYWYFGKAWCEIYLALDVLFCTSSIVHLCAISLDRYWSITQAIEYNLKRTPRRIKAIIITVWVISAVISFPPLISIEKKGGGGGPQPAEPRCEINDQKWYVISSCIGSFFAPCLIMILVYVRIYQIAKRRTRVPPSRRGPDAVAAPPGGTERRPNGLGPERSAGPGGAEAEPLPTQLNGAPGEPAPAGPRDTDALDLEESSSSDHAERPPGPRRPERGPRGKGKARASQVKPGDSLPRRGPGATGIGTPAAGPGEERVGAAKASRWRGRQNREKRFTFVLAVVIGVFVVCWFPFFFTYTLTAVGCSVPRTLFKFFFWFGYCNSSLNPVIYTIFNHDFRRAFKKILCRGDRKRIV

[4] = biological target: T2, Equilibrative nucleoside transporter 1 (Homo sapiens, UniProt Q99808)
T2 sequence (Q99808 whole entry): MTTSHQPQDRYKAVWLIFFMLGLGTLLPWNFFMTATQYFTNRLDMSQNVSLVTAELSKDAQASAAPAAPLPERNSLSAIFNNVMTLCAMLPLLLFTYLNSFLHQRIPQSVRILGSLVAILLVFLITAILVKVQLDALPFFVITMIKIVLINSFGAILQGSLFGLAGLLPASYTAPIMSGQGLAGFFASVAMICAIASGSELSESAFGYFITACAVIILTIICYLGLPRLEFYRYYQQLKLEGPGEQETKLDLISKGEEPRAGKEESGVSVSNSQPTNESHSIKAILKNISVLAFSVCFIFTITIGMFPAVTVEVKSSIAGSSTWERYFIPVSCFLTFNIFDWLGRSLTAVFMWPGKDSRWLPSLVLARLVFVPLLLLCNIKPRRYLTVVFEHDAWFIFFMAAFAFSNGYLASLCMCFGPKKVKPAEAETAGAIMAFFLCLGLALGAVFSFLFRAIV

[5] = biological target: Voltage-dependent L-type calcium channel subunit alpha-1C (Rattus norvegicus, UniProt P22002); format: functional
Chain of Voltage-dependent L-type calcium channel subunit alpha-1C (P22002 whole entry): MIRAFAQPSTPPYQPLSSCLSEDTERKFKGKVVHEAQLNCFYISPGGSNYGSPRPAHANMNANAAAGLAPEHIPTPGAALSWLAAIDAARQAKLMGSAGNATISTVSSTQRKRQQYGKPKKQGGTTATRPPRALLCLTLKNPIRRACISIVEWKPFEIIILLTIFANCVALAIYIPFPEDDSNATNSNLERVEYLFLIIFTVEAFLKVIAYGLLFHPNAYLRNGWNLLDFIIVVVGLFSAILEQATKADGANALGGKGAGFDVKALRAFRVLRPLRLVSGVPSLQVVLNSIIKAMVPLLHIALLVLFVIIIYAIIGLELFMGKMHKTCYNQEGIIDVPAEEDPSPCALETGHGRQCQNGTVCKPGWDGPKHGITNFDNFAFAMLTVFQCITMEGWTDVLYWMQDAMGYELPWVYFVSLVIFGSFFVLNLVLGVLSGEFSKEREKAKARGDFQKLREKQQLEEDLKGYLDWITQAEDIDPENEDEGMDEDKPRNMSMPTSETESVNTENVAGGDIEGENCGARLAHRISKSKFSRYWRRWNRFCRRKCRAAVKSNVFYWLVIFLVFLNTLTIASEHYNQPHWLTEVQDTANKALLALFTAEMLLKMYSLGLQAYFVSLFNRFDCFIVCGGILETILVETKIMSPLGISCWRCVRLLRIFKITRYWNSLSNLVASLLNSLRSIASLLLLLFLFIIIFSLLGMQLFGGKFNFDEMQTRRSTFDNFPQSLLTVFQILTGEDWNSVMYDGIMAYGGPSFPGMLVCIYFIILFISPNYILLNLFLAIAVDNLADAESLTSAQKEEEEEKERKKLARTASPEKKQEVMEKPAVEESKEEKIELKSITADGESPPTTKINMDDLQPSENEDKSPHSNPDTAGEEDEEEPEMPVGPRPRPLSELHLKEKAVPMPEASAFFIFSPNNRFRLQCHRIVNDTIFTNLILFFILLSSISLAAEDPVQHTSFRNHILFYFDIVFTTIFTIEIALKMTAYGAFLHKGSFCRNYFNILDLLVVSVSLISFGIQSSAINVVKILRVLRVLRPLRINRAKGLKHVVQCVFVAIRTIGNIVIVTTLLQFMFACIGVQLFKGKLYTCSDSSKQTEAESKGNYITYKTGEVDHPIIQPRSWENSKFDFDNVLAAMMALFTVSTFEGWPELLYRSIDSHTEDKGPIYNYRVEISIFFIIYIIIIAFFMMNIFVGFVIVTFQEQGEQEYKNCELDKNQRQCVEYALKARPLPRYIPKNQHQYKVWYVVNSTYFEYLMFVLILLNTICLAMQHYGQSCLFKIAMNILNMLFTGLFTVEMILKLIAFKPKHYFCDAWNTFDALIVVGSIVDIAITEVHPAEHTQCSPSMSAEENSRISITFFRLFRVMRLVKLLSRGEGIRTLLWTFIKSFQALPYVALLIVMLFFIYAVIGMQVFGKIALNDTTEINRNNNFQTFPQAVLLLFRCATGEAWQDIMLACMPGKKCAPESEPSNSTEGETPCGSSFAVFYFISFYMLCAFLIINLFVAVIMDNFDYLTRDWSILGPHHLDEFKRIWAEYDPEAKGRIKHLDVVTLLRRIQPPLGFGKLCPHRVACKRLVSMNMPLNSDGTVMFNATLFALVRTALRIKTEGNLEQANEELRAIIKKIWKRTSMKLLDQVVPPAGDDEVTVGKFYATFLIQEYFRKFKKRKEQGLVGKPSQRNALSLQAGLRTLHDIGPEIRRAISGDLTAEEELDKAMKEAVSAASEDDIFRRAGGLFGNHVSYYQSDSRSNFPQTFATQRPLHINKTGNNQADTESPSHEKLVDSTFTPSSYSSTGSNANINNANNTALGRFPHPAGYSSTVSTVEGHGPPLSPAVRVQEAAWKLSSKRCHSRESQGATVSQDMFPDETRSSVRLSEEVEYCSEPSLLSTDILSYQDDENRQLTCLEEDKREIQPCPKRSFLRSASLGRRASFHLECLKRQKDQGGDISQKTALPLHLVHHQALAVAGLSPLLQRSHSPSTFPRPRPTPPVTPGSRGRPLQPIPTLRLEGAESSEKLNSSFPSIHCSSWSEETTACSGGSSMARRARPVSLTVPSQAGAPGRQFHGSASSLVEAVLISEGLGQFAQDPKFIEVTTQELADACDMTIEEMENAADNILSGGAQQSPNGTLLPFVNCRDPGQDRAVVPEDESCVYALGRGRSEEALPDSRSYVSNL

[6] = biological target: T3, Muscarinic acetylcholine receptor M2 (Homo sapiens, UniProt P08172); format: functional, cell-based
T3 sequence (P08172 whole entry): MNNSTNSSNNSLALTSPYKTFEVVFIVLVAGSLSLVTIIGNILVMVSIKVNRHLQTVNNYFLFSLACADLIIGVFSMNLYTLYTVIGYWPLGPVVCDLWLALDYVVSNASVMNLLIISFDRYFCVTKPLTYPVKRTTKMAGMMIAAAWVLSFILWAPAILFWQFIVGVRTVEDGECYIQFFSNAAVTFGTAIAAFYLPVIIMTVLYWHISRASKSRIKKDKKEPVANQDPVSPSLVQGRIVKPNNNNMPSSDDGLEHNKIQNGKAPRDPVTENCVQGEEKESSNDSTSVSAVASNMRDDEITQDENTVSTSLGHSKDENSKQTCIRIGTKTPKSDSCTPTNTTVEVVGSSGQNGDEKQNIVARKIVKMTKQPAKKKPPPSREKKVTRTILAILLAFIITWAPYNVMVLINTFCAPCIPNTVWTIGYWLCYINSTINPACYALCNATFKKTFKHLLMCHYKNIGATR

[7] = biological target: T1, Alpha-2A adrenergic receptor; format: functional, cell-based; remark: listed apart in the source
[8] = biological target: Beta-2 adrenergic receptor (Homo sapiens, UniProt P07550)
Chain of Beta-2 adrenergic receptor (P07550 whole entry): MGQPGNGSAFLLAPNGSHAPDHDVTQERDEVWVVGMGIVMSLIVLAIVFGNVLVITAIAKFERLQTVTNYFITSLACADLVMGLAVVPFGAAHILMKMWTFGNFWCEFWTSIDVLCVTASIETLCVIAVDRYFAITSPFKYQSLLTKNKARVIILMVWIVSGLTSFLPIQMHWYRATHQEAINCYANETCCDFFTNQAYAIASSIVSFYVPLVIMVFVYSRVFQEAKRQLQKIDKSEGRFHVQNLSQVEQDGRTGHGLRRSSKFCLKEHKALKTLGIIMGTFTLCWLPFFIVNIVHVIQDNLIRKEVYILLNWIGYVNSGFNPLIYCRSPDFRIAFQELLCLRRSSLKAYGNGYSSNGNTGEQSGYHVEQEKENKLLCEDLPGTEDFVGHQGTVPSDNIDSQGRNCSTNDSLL

[9] = biological target: Gamma-aminobutyric acid receptor subunit alpha-1 (Rattus norvegicus, UniProt P62813)
Chain of Gamma-aminobutyric acid receptor subunit alpha-1 (P62813 whole entry): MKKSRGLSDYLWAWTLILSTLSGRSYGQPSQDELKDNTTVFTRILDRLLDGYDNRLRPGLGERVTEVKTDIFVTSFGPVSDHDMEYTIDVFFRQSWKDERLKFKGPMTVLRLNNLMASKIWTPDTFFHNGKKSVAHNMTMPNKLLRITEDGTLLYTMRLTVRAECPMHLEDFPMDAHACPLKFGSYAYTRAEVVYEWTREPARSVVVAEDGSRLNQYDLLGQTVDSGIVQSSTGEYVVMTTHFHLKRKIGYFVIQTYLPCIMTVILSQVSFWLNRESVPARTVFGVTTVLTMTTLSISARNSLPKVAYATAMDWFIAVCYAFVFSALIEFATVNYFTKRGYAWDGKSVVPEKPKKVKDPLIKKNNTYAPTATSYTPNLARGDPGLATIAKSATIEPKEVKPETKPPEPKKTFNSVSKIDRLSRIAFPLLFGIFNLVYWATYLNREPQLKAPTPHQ

[10] = biological target: Prostaglandin G/H synthase 1 (Homo sapiens, UniProt P23219); format: functional
[11] = biological target: D(3) dopamine receptor (Homo sapiens, UniProt P35462)
[12] = biological target: Vascular endothelial growth factor receptor 2 (Homo sapiens, UniProt P35968); format: functional
Chain of Vascular endothelial growth factor receptor 2 (P35968 whole entry): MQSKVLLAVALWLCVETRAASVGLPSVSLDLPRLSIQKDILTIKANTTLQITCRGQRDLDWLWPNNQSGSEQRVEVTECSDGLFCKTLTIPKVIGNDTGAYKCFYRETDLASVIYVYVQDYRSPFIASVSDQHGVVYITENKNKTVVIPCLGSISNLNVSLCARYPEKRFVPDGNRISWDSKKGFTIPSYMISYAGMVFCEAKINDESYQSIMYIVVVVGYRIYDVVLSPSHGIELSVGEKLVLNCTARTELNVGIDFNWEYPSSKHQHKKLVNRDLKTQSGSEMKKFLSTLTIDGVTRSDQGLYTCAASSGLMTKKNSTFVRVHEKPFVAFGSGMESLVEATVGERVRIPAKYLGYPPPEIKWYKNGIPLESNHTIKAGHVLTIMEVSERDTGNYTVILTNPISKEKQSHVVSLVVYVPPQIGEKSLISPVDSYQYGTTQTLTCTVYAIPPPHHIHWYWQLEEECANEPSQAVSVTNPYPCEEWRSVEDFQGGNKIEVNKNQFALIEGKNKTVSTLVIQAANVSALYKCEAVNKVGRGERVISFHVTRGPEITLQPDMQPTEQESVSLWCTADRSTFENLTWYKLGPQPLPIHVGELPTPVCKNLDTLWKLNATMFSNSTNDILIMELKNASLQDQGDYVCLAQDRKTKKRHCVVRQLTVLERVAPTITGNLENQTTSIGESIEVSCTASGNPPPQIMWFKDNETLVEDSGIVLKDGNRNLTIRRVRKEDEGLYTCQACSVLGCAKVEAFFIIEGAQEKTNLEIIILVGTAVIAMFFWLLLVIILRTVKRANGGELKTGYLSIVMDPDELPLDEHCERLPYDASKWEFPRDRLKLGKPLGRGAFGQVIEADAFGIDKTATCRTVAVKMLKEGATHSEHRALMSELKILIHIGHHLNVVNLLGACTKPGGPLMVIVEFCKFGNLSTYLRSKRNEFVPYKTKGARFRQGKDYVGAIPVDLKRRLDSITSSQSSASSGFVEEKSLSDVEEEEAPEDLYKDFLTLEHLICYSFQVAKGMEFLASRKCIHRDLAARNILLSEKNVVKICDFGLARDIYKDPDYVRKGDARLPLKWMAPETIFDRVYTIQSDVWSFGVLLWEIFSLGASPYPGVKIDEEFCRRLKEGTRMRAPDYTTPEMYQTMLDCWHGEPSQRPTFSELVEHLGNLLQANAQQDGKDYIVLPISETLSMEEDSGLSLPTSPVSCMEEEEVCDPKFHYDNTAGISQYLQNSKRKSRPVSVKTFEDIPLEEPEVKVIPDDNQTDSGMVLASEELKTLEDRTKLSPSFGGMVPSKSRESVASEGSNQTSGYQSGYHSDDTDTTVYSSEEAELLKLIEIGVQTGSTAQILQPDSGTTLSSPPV

[13] = biological target: Sodium-dependent noradrenaline transporter (Homo sapiens, UniProt P23975)
[14] = biological target: T4, Alpha-1A adrenergic receptor (Homo sapiens, UniProt P35348); format: functional, cell-based
T4 sequence (P35348 whole entry): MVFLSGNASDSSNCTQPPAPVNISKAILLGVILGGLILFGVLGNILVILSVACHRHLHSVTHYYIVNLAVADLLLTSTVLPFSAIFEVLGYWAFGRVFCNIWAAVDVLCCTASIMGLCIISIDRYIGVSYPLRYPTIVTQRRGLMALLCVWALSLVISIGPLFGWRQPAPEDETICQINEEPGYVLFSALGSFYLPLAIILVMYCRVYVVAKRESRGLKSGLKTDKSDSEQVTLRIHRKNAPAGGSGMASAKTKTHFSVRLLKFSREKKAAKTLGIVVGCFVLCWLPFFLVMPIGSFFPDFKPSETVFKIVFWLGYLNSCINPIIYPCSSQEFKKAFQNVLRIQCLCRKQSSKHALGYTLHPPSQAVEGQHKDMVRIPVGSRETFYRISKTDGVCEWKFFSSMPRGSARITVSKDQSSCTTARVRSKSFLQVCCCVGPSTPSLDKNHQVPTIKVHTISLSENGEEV

[15] = biological target: Cannabinoid receptor 1 (Homo sapiens, UniProt P21554); format: functional, cell-based
Chain of Cannabinoid receptor 1 (P21554 whole entry): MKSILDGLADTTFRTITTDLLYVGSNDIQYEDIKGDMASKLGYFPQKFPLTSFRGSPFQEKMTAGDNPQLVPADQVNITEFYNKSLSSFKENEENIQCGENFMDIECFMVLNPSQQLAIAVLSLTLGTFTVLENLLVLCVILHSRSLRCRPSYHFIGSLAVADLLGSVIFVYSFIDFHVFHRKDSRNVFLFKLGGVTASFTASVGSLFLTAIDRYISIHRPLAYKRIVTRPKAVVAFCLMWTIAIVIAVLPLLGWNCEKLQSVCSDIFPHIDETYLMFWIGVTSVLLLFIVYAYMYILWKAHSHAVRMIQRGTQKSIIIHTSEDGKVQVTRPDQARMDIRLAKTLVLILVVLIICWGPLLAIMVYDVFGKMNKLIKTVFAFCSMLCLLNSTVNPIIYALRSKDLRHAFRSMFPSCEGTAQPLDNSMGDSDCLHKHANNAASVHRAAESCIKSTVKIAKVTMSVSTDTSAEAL

[16] = biological target: T4, Alpha-1A adrenergic receptor; format: functional, cell-based; remark: listed apart in the source
Note: assay procedure not described here.

Compound | AC50 [1] | AC50 [2] | AC50 [3] | AC50 [4] | AC50 [5] | AC50 [6] | AC50 [7] | AC50 [8] | AC50 [9] | AC50 [10] | AC50 [11] | AC50 [12] | AC50 [13] | AC50 [14] | AC50 [15] | AC50 [16]
CN(C)Cc1nnc2n1-c1ccc(Cl)cc1C(c1ccccc1)=NC2 [ADINAZOLAM] | > 10 µM | > 10 µM | > 10 µM | > 10 µM | > 10 µM | > 10 µM | > 10 µM | > 10 µM | > 10 µM | – | – | – | – | – | – | –
NC(=O)[C@@H]1CC[C@@H]2CN1C(=O)N2OS(=O)(=O)O [AVIBACTAM] | – | – | – | – | – | – | – | – | – | > 30 µM | > 30 µM | > 30 µM | > 30 µM | – | – | –
CCOC(=O)c1ccc(N)cc1 [BENZOCAINE] | > 10 µM | > 10 µM | > 10 µM | > 10 µM | > 10 µM | > 10 µM | > 10 µM | > 10 µM | > 10 µM | – | – | – | – | – | – | –
CC(C)(Oc1ccc(CCNC(=O)c2ccc(Cl)cc2)cc1)C(=O)O [BEZAFIBRATE] | > 10 µM | > 10 µM | > 10 µM | > 10 µM | > 10 µM | > 10 µM | > 10 µM | > 10 µM | > 10 µM | – | – | – | – | > 30 µM | > 30 µM | > 30 µM
C=C1CC[C@H](O)C/C1=C/C=C1\CCC[C@]2(C)[C@@H]([C@H](C)CCCC(C)C)CC[C@@H]12 [CHOLECALCIFEROL] | – | – | – | – | – | – | – | – | – | 22.9 µM | 15.6 µM | > 30 µM | > 10 µM | – | – | –
C[C@H](CCC(=O)O)[C@H]1CC[C@H]2[C@@H]3[C@H](O)C[C@@H]4C[C@H](O)CC[C@]4(C)[C@H]3C[C@H](O)[C@]12C [CHOLIC ACID] | – | – | – | – | – | – | – | – | – | – | – | > 30 µM | – | – | – | –
Cc1ncc2c(c1O)COC2c1ccc(Cl)cc1 (stereo not given) [CICLETANINE] | – | – | – | – | – | – | – | – | – | > 30 µM | > 30 µM | > 30 µM | > 30 µM | – | – | –
CN[C@]1(c2ccccc2Cl)CCCCC1=O [ESKETAMINE] | > 30 µM | > 30 µM | > 30 µM | > 30 µM | > 30 µM | > 30 µM | > 30 µM | > 30 µM | > 30 µM | – | – | – | – | > 30 µM | – | > 30 µM
CC(=O)O[C@H]1Cc2ccccc2N(C(N)=O)c2ccccc21 [ESLICARBAZEPINE ACETATE] | – | – | – | – | – | – | – | – | – | > 30 µM | > 30 µM | > 30 µM | > 30 µM | – | – | –
CCOC(=O)C1=C(C)NC(C)=C(C(=O)OCC)C1c1ccccc1/C=C/C(=O)OC(C)(C)C [LACIDIPINE] | > 30 µM | > 30 µM | > 30 µM | > 30 µM | 0.32 µM | > 30 µM | > 30 µM | > 30 µM | > 30 µM | – | – | – | – | > 30 µM | > 30 µM | > 30 µM
COc1ccc(OC)c(C(O)C(C)N)c1 (stereo not given) [METHOXAMINE] | – | – | – | – | – | – | – | – | – | > 30 µM | > 30 µM | > 30 µM | > 30 µM | – | – | –
Cc1ccccc1N1C(=O)c2cc(S(N)(=O)=O)c(Cl)cc2NC1C (stereo not given) [METOLAZONE] | > 10 µM | > 10 µM | > 10 µM | > 10 µM | > 10 µM | > 10 µM | > 10 µM | > 10 µM | > 10 µM | – | – | – | – | – | – | –
CC1(CCN2CCCCC2)C(=O)CCc2ccccc21 (stereo not given) [NEPINALONE] | – | – | – | – | – | – | – | – | – | > 30 µM | > 30 µM | > 30 µM | > 30 µM | – | – | –
O=C(O)c1cccnc1Nc1cccc(C(F)(F)F)c1 [NIFLUMIC ACID] | > 10 µM | > 10 µM | > 10 µM | > 10 µM | > 10 µM | > 10 µM | > 10 µM | > 10 µM | > 10 µM | – | – | – | – | – | – | –
COc1cccc(C(=O)CCN[C@@H](C)[C@H](O)c2ccccc2)c1 [OXYFEDRINE] | – | – | – | – | – | – | – | – | – | > 30 µM | 0.382 µM | > 30 µM | 2.65 µM | – | – | –
CC[N+](C)(CC)CCOC(=O)C(O)(c1ccccc1)C1CCCCC1 (stereo not given) [OXYPHENONIUM] | – | – | – | – | – | – | – | – | – | > 30 µM | > 30 µM | > 30 µM | > 30 µM | – | – | –
O=C1c2ccccc2C(=O)C1c1ccccc1 [PHENINDIONE] | > 10 µM | > 10 µM | > 10 µM | > 10 µM | > 10 µM | > 10 µM | > 10 µM | > 10 µM | > 10 µM | – | – | – | – | > 30 µM | > 30 µM | > 30 µM
CN[C@@H](C)[C@@H](O)c1ccccc1 [PSEUDOEPHEDRINE] | > 10 µM | > 10 µM | > 10 µM | > 30 µM | > 10 µM | > 10 µM | > 10 µM | > 10 µM | > 10 µM | – | – | – | – | – | – | –
COC(=O)[C@H]1[C@H]2C[C@@H]3c4[nH]c5cc(OC)ccc5c4CCN3C[C@H]2C[C@@H](OC(=O)c2cc(OC)c(OC)c(OC)c2)[C@@H]1OC [RESERPINE] | > 10 µM | 13 µM | > 10 µM | 28.5 µM | 8.83 µM | > 10 µM | > 10 µM | > 10 µM | > 10 µM | > 10 µM | > 30 µM | > 30 µM | 13.6 µM | – | – | –
Clc1ccc(C(Cn2ccnc2)OCc2csc3c(Cl)cccc23)c(Cl)c1 (stereo not given) [SERTACONAZOLE] | – | – | – | – | – | – | – | – | – | 7.68 µM | 1.78 µM | > 30 µM | 3.3 µM | – | – | –
CC(OCCN1CCCCCC1)(c1ccccc1)c1ccc(Cl)cc1 (stereo not given) [SETASTINE] | – | – | – | – | – | – | – | – | – | > 30 µM | 0.432 µM | > 30 µM | 5.82 µM | – | – | –
C[C@]12CCC(=O)C[C@@H]1CC[C@@H]1[C@@H]2CC[C@]2(C)[C@@H](O)CC[C@@H]12 [STANOLONE] | > 30 µM | > 30 µM | > 30 µM | > 30 µM | > 30 µM | > 30 µM | > 30 µM | > 30 µM | > 30 µM | – | – | – | – | > 30 µM | – | > 30 µM
c1ccc2c(SC3=NCCN3)c[nH]c2c1 [TINAZOLINE] | – | – | – | – | – | – | – | – | – | > 30 µM | > 30 µM | > 30 µM | 5.56 µM | – | – | –
Cc1ccc(C(=O)C(C)CN2CCCCC2)cc1 (stereo not given) [TOLPERISONE] | – | – | – | – | – | – | – | – | – | > 30 µM | 2.52 µM | > 30 µM | > 30 µM | – | – | –
